Molecular target: T1, human Trk A kinase (Homo sapiens, UniProt P04629)
T1 construct: HIS; made in house; host or cells: SF9 insect cells
Experiment: Trk A Assay (Alphascreen kinase assay)
Type: biochemical
Details: 70 μM ATP, PolyEY-biotin substrate, 20 minutes, room temperature, read-out: Trk inhibitory activity IC50
Protocol: After incubation of the kinase with a biotinylated substrate and adenosine triphosphate (ATP) for 20 minutes at room temperature, the kinase reaction was stopped by the addition of 30 mM ethylenediaminetetraacetic acid (EDTA). The reaction was performed in 384 well microtitre plates and the reaction products were detected with the addition of strepavidin coated Donor Beads and phosphotyrosine-specific antibodies coated Acceptor Beads using the EnVision Multilabel Plate Reader after an overnight incubation at room temperature.

T1 sequence (P04629 442-796): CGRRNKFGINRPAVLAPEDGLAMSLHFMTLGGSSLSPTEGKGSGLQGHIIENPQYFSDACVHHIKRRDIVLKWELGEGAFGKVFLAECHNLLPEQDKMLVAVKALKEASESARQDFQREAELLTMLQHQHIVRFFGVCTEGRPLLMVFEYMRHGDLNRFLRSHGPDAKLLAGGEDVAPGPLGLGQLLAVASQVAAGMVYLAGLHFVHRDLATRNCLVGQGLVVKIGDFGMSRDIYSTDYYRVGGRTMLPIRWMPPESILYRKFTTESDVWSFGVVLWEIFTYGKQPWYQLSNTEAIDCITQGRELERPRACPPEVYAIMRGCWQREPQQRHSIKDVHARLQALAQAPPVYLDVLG

- IC50: 10 nM
SMILES: C[C@H](Nc1ncc(F)c(Nc2cc(C3CC3)[nH]n2)n1)c1ccc(F)cn1 [Example 3, (S)-5-Fluoro-N^1-(5-cyclopropyl-1H-pyrazol-3-yl)-N^2-(1-(5-fluoropyridin-2-yl)ethyl)pyrimidine-2,4-diamine]

From patent publication US8114989B2, “Pyrazolylaminopyrimidine derivatives useful as tyrosine kinase inhibitors” (AstraZeneca AB, priority 2005, dated 2012)
